Earlier results, collected in PubChem BioAssay AID1259409 (Chemical Carcinogenesis Research Information System (CCRIS), 2018).

Tested on: rodent chemically induced tumor inhibition, incidence and multiplicity
Assay: CCRIS tumor inhibitor studies

Nc1nc2ncc(CNc3ccc(C(=O)N[C@@H](CCC(=O)O)C(=O)O)cc3)nc2c(=O)[nH]1
tumour outcome (control, treated, inhibition, significance) (Carcinogen: HYDRAZINE SULFATE, 10034-93-2, Dose [Inhibitor]: 1.1 MG/D IN DIET STARTING 1 WK PRIOR TO ADMINISTRATION OF CARCINOGEN UNTIL END OF EXPERIMENT (STUDY DURATION: APPROXIMAT, Route [Inhibitor]: ORAL, Species: MOUSE, Strain/Sex: SWISS/MALE, FEMALE, Target Tissue: Type of Lesion: LIVER AND LUNG: COMBINED TUMORS, Dose [Carcinogen]: 1.1 MG/D 5 D/WK UNTIL 12 MO OF AGE, Promoter: NONE USED): 24/29 (83%), 19/31 (61%), 26%, p<0.1
tumour outcome (control, treated, inhibition, significance) (Carcinogen: ISONIAZID, 54-85-3, Dose [Inhibitor]: 1.1 MG/D SIMULTANEOUS WITH CARCINOGEN 6 D/WK (STUDY DURATION: LIFETIME), Route [Inhibitor]: INTRAGASTRIC, Species: MOUSE, Strain/Sex: SWISS/MALE, Target Tissue: Type of Lesion: LUNG: TUMOR, Dose [Carcinogen]: 1.1 MG/D SIMULTANEOUS WITH INHIBITOR, Promoter: NONE USED): 15/29 (52%), 0/16 (0%), 100%, p<0.01
tumour outcome (control, treated, inhibition, significance) (Carcinogen: N-methyl-N'-nitro-N-nitrosoguanidine, 70-25-7, Dose [Inhibitor]: 0, 5 mg/kg in water for 50 weeks beginning at 6 weeks of age, Route [Inhibitor]: Oral, Species: Rat, Strain/Sex: Wistar/Male, Target Tissue: Type of Lesion: Stomach: Tumor, Dose [Carcinogen]: 100 mg/L in drinking water for 50 weeks): 5/11 (45.5%), 0/10 (0%), 100% p<0.05

CC(Cc1ccc(O)c(O)c1)C(C)Cc1ccc(O)c(O)c1 (stereo not drawn)
tumour outcome (control, treated, inhibition, significance) (Carcinogen: 7,12-DIMETHYLBENZ[A]ANTHRACENE, 57-97-6, Dose [Inhibitor]: 0, 10 UMOL IN 0.2 ML ACETONE 1/D FOR 7 D BEGINNING 7 D PRIOR TO CARCINOGEN DOSE (STUDY DURATION: 17 WK), Route [Inhibitor]: DERMAL, Species: RAT, Strain/Sex: SENCAR/FEMALE, Target Tissue: Type of Lesion: SKIN: TUMOR, Dose [Carcinogen]: 40 NMOL IN 0.2 ML ACETONE ONCE, Promoter: 12-0-TETRADECANOYLPHORBOL-13-ACETATE, 16561-29-8): 100%, 100%, 0%, not significant
tumour outcome (control, treated, inhibition, significance) (Carcinogen: 7,12-DIMETHYLBENZ[A]ANTHRACENE, 57-97-6, Dose [Inhibitor]: 0, 10 UMOL IN 0.2 ML ACETONE 2/WK FOR 16 WK APPLIED 30 MIN PRIOR TO PROMOTER DOSES (STUDY DURATION: 17 WK), Route [Inhibitor]: DERMAL, Species: RAT, Strain/Sex: SENCAR/FEMALE, Target Tissue: Type of Lesion: SKIN: TUMOR, Dose [Carcinogen]: 40 NMOL IN 0.2 ML ACETONE ONCE, Promoter: 12-0-TETRADECANOYLPHORBOL-13-ACETATE, 16561-29-8): 100%, 85%, 15%, not calculated
tumour outcome (control, treated, inhibition, significance) (Carcinogen: 7,12-DIMETHYLBENZ[A]ANTHRACENE, 57-97-6, Dose [Inhibitor]: 30 UMOL APPLIED 30-40 MIN BEFORE EACH TPA TREATMENT AND CONCURRENTLY WITH TPA (STUDY DURATION: 18 WK), Route [Inhibitor]: DERMAL, Species: MOUSE, Strain/Sex: CD-1/FEMALE, Target Tissue: Type of Lesion: SKIN: PAPILLOMA, Dose [Carcinogen]: 200 NMOL ONCE, Promoter: 12-O-TETRADECANOYLPHORBOL-13-ACETATE, 16561-29-8): 96%, 50%, 48%, not calculated
tumour outcome (control, treated, inhibition, significance) (Carcinogen: DIETHYLNITROSAMINE, 55-18-5, Dose [Inhibitor]: 0, 1 MG/D IN 0.2 ML CORN OIL 3/WK FOR 16 WKS BEGINNING POST CARCINOGEN DOSE (STUDY DURATION: 24 WKS), Route [Inhibitor]: GAVAGE, Species: MOUSE, Strain/Sex: SWISS/MALE, Target Tissue: Type of Lesion: KIDNEY: RENAL CELL TUMOR, Dose [Carcinogen]: 100 MG/KG BW IN SALINE ONCE, Promoter: FERRIC NITRILOTRIACETATE, 16448-54-7): 68%, 20%, 71%, not calculated
tumour outcome (control, treated, inhibition, significance) (Carcinogen: DIETHYLNITROSAMINE, 55-18-5, Dose [Inhibitor]: 0, 2 MG/D IN 0.2 ML CORN OIL 3/WK FOR 16 WK BEGINNING POST CARCINOGEN DOSE (STUDY DURATION:24 WKS), Route [Inhibitor]: GAVAGE, Species: MOUSE, Strain/Sex: SWISS/MALE, Target Tissue: Type of Lesion: KIDNEY: RENAL CELL TUMOR, Dose [Carcinogen]: 100 MG/KG BW IN SALINE ONCE, Promoter: FERRIC NITRILOTRIACETATE, 16448-54-7): 68%, 16%, 76%, not calculated
tumour outcome (control, treated, inhibition, significance) (Carcinogen: N-BUTYL-N-(4-HYDROXYBUTYL)NITROSAMINE, 3817-11-6, Dose [Inhibitor]: 0, 0.1% IN DIET CONCURRENT WITH PROMOTER BEGINNING POST CARCINOGEN TREATMENT AND CONTINUING FOR 36 WK (STUDY DURATION: 4, Route [Inhibitor]: ORAL, Species: RAT, Strain/Sex: F344/MALE, Target Tissue: Type of Lesion: URINARY BLADDER: CARCINOMA, Dose [Carcinogen]: 0.05% IN DRINKING WATER FOR 4 WK, Promoter: SODIUM SACCHARIN, 128-44-9): 2/23 (9%), 1/22 (5%), 44%, not significant
tumour outcome (control, treated, inhibition, significance) (Carcinogen: N-BUTYL-N-(4-HYDROXYBUTYL)NITROSAMINE, 3817-11-6, Dose [Inhibitor]: 0, 0.1% IN DIET CONCURRENT WITH PROMOTER BEGINNING POST CARCINOGEN TREATMENT AND CONTINUING FOR 36 WK (STUDY DURATION: 4, Route [Inhibitor]: ORAL, Species: RAT, Strain/Sex: F344/MALE, Target Tissue: Type of Lesion: URINARY BLADDER: PAPILLOMA, Dose [Carcinogen]: 0.05% IN DRINKING WATER FOR 4 WK, Promoter: SODIUM SACCHARIN, 128-44-9): 5/23 (22%), 0/22 (0%), 100%, p<0.05

CSS(C)(=O)=O
tumour outcome (control, treated, inhibition, significance) (Carcinogen: AZOXYMETHANE, 25843-45-2, Dose [Inhibitor]: 0, 20 PPM IN DIET FOR 32 WK BEGINNING 1 WK POST CARCINOGEN TREATMENT (STUDY DURATION: 36 WK), Route [Inhibitor]: ORAL, Species: RAT, Strain/Sex: (30,30)/(30,24), Target Tissue: Type of Lesion: SMALL INTESTINE: ADENOMA OR ADENOCARCINOMA, Dose [Carcinogen]: 15 MG/KG BW 1/WK FOR 3 WK, Promoter: NONE USED): 4/30 (13%), 1/24 (4%), 69%, not significant
tumour outcome (control, treated, inhibition, significance) (Carcinogen: AZOXYMETHANE, 25843-45-2, Dose [Inhibitor]: 0, 20 PPM IN DIET FOR 32 WK BEGINNING 1 WK POST CARCINOGEN TREATMENT (STUDY DURATION: 36 WK), Route [Inhibitor]: ORAL, Species: RAT, Strain/Sex: F344/MALE, Target Tissue: Type of Lesion: LARGE INTESTINE: ADENOMA OR ADENOCARCINOMA, Dose [Carcinogen]: 15 MG/KG BW 1/WK FOR 3 WK, Promoter: NONE USED): 17/30 (57%), 9/24 (38%), 33%, not significant
tumour outcome (control, treated, inhibition, significance) (Carcinogen: AZOXYMETHANE, 25843-45-2, Dose [Inhibitor]: 0, 100 PPM IN DIET FOR 32 WK BEGINNING 1 WK POST CARCINOGEN TREATMENT (STUDY DURATION: 36 WK), Route [Inhibitor]: ORAL, Species: RAT, Strain/Sex: F344/MALE, Target Tissue: Type of Lesion: LARGE INTESTINE: ADENOMA OR ADENOCARCINOMA, Dose [Carcinogen]: 15 MG/KG BW 1/WK FOR 3 WK, Promoter: NONE USED): 17/30 (57%), 2/28 (7%), 88%, p<0.0001
tumour outcome (control, treated, inhibition, significance) (Carcinogen: AZOXYMETHANE, 25843-45-2, Dose [Inhibitor]: 0, 100 PPM IN DIET FOR 32 WK BEGINNING 1 WK POST CARCINOGEN TREATMENT (STUDY DURATION: 36 WK), Route [Inhibitor]: ORAL, Species: RAT, Strain/Sex: F344/MALE, Target Tissue: Type of Lesion: SMALL INTESTINE: ADENOMA OR ADENOCARCINOMA, Dose [Carcinogen]: 15 MG/KG BW 1/WK FOR 3 WK, Promoter: NONE USED): 4/30 (13%), 4/28 (14%), -7%, not significant
tumour outcome (control, treated, inhibition, significance) (Carcinogen: DIETHYLNITROSAMINE, 55-18-5, Dose [Inhibitor]: 0, 100 PPM IN DIET FOR 4 WK BEGINNING 1 WK PRIOR TO CARCINOGEN TREATMENT (STUDY DURATION: 24 WK), Route [Inhibitor]: ORAL, Species: RAT, Strain/Sex: F344/MALE, Target Tissue: Type of Lesion: LIVER: HEPATOCELLULAR ADENOMA, Dose [Carcinogen]: 100 MG/KG BW 1/WK FOR 3 WK, Promoter: PHENOBARBITAL, 50-06-6): 95%, 89%, 6%, not significant
tumour outcome (control, treated, inhibition, significance) (Carcinogen: DIETHYLNITROSAMINE, 55-18-5, Dose [Inhibitor]: 0, 100 PPM IN DIET FOR 4 WK BEGINNING 1 WK PRIOR TO CARCINOGEN TREATMENT (STUDY DURATION: 24 WK), Route [Inhibitor]: ORAL, Species: RAT, Strain/Sex: F344/MALE, Target Tissue: Type of Lesion: LIVER: HEPATOCELLULAR CARCINOMA, Dose [Carcinogen]: 100 MG/KG BW 1/WK FOR 3 WK, Promoter: PHENOBARBITAL, 50-06-6): 70%, 89%, -27%, not significant
tumour outcome (control, treated, inhibition, significance) (Carcinogen: DIETHYLNITROSAMINE, 55-18-5, Dose [Inhibitor]: 0, 100 PPM IN DIET FOR 20 WK BEGINNING 1 WK POST CARCINOGEN TREATMENT (STUDY DURATION: 24 WK), Route [Inhibitor]: ORAL, Species: RAT, Strain/Sex: F344/MALE, Target Tissue: Type of Lesion: LIVER: HEPATOCELLULAR ADENOMA, Dose [Carcinogen]: 100 MG/KG BW 1/WK FOR 3 WK, Promoter: PHENOBARBITAL, 50-06-6): 95%, 55%, 42%, p<0.005
tumour outcome (control, treated, inhibition, significance) (Carcinogen: DIETHYLNITROSAMINE, 55-18-5, Dose [Inhibitor]: 0, 100 PPM IN DIET FOR 20 WK BEGINNING 1 WK POST CARCINOGEN TREATMENT (STUDY DURATION: 24 WK), Route [Inhibitor]: ORAL, Species: RAT, Strain/Sex: F344/MALE, Target Tissue: Type of Lesion: LIVER: HEPATOCELLULAR CARCINOMA, Dose [Carcinogen]: 100 MG/KG BW 1/WK FOR 3 WK, Promoter: PHENOBARBITAL, 50-06-6): 70%, 81%, -16%, not significant
